From US8324390B2, “Tetrazole-substituted anthranilamides as pesticides” (Bayer CropScience AG, priority 2008, dated 2012)
Where two headings read alike, the source gives them in different places.

Key:
[1] = system: caterpillars of the armyworm (Spodoptera frugiperda); test: Spodoptera frugiperda test (SPODFR spray treatment); assay type: in vivo; settings: Spodoptera frugiperda, foliar, read-out: effect in % (caterpillars killed)
Description: (§1) Solvent: 78.0 parts by weight of acetone

[2] = system: larvae of the mustard beetle (Phaedon cochleariae); test: Phaedon test (PHAECO spray treatment); settings: Phaedon cochleariae, in Brassica rapa, foliar, read-out: effect in % (beetle larvae killed)
[3] = system: green peach aphid (Myzus persicae); test: Myzus test (MYZUPE spray treatment); assay type: in vivo; settings: Myzus persicae, foliar, read-out: effect in % (aphids killed)
Description: Solvent: 78 parts by weight of acetone
as §1

[4] = log P determination by HPLC (EEC Directive 79/831 Annex V.A8); assay type: physicochemical
Protocol: The measurements were carried out using an Agilent 1100 LC system with a 50*4.6 Zorbax Eclipse C18 1.8 μm column (oven temperature 55° C., flow rate 2.0 ml/min).
The following mobile phases were used:
Mobile phase A: acetonitrile+1000 μl of formic acid/l
Mobile phase B: Millipore water+900 μl of formic acid/l

[5] = application rate 100 g/ha, maize leaf discs
[6] = application rate 100 g/ha, Chinese cabbage leaf discs
[7] = reversed-phase HPLC, Zorbax Eclipse C18 column, determined by HPLC according to EEC Directive 79/831 Annex V.A8, read-out: log P
[8] = reversed-phase HPLC, Zorbax Eclipse C18 column, by HPLC according to EEC Directive 79/831 Annex V.A8, read-out: log P

chromatographic logP [4, 7] | chromatographic logP [4, 8] | Compound | pest or weed control at 100 g/ha ([1]; in Zea mays) [%] | pest or weed control at 100 g/ha [2] [%] | pest or weed control at 100 g/ha ([3]; in Brassica rapa) [%] | chromatographic logP ([4]; log P) | pest or weed control at 100 g/ha [1, 5] [%] | pest or weed control at 100 g/ha [3, 6] [%] | chromatographic logP ([4]; by HPLC according to EEC Directive 79/831 Annex V.A8, read-out: log P) | pest or weed control at 20 g/ha ([3]; application rate 20 g/ha, Chinese cabbage leaf discs) [%]
 |  | Cc1cc(F)cc(C(=O)NC2CC2)c1NC(=O)c1cc(Cn2nnc(C(F)(F)F)n2)nn1-c1ncccc1Cl [Example 27] | ≥ 80 | ≥ 80 | ≥ 80 | 2.87 |  |  |  | 
 |  | Cc1cc(Cl)cc(C(=O)NC(C)(C)C)c1NC(=O)c1cc(Cn2nnnc2C(F)F)nn1-c1ncccc1Cl [Example 475] | ≥ 80 | ≥ 80 | ≥ 80 | 3.09 |  |  |  | 
3.2 |  | Cc1cc(C#N)cc(C(=O)NC(C)(C)C)c1NC(=O)c1cc(Cn2nnc(C(F)(F)F)n2)nn1-c1ncccc1F [Example 407] |  | ≥ 80 |  |  | ≥ 80 | ≥ 80 |  | 
 |  | Cc1cc(I)cc(C(=O)NC2CCC2)c1NC(=O)c1cc(Cn2nnc(C(F)F)n2)nn1-c1ncccc1Cl [Example 280] | ≥ 80 | ≥ 80 | ≥ 80 | 3.34 |  |  |  | 
 |  | CC(C)NC(=O)c1cc(Cl)cc(Cl)c1NC(=O)c1cc(Cn2nnc(C(F)F)n2)nn1-c1ncccc1Cl [Example 286] | ≥ 80 | ≥ 80 | ≥ 80 | 2.91 |  |  |  | 
 |  | Cc1cc(C#N)cc(C(N)=O)c1NC(=O)c1cc(Cn2nnc(C(F)(F)F)n2)nn1-c1ncccc1Cl [Example 17] | ≥ 80 | ≥ 80 | ≥ 80 | 2.45 |  |  |  | 
2.88 |  | Cc1cc(C#N)cc(C(=O)NC(C)C)c1NC(=O)c1cc(Cn2nnc(C(F)(F)F)n2)nn1-c1ncccc1F [Example 406] |  | ≥ 80 |  |  | ≥ 80 | ≥ 80 |  | 
 |  | Cc1cc(C#N)cc(C(=O)NC(C)C)c1NC(=O)c1cc(Cn2nnnc2C(F)(F)F)nn1-c1ncccc1Cl [Example 165] | ≥ 80 | ≥ 80 | ≥ 80 | 2.72 |  |  |  | 
 |  | Cc1cc(C#N)cc(C(=O)NC2CC2)c1NC(=O)c1cc(Cn2nnc(C(F)(F)C(F)(F)C(F)(F)F)n2)nn1-c1ncccc1Cl [Example 113] | ≥ 80 | ≥ 80 | ≥ 80 |  |  |  | 3.58 | 
 |  | Cc1cc(Cl)cc(C(=O)NC(C)C)c1NC(=O)c1cc(Cn2nnnc2C(F)(F)C(F)(F)F)nn1-c1ncccc1Cl [Example 201] | ≥ 80 | ≥ 80 | ≥ 80 | 3.59 |  |  |  | 
 |  | Cc1cc(C#N)cc(C(=O)NCC#N)c1NC(=O)c1cc(Cn2nnc(C(F)(F)F)n2)nn1-c1ncccc1Cl [Example 18] | ≥ 80 | ≥ 80 | ≥ 80 | 2.61 |  |  |  | 
 |  | CNC(=O)c1cc(F)cc(C)c1NC(=O)c1cc(Cn2nnnc2C(F)(F)F)nn1-c1ncccc1Cl [Example 167] | ≥ 80 | ≥ 80 | ≥ 80 | 2.32 |  |  |  | 
 |  | Cc1cc(C#N)cc(C(=O)NCC2CC2)c1NC(=O)c1cc(Cn2nnc(C(F)F)n2)nn1-c1ncccc1Cl [Example 269] | ≥ 80 | ≥ 80 | ≥ 80 | 2.66 |  |  |  | 
 |  | O=C(NC1CC1)c1cc(Cl)cc(Cl)c1NC(=O)c1cc(Cn2nnc(C(F)(C(F)(F)F)C(F)(F)F)n2)nn1-c1ncccc1Cl [Example 339] | ≥ 80 | ≥ 80 | ≥ 80 | 3.89 |  |  |  | 
 | 3.88 | Cc1cc(Cl)cc(C(=O)NC(C)(C)C)c1NC(=O)c1cc(Cn2nnc(C(F)(F)F)n2)nn1-c1ncccc1Br [Example 329] |  | ≥ 80 |  |  | ≥ 80 |  |  | ≥ 80
 |  | Cc1cc(Cl)cc(C(N)=O)c1NC(=O)c1cc(Cn2nnc(C(F)F)n2)nn1-c1ncccc1Cl [Example 304] | ≥ 80 | ≥ 80 | ≥ 80 | 2.32 |  |  |  | 
3.26 |  | CNC(=O)c1cc(I)cc(C)c1NC(=O)c1cc(Cn2nnc(C(F)(F)F)n2)nn1-c1ncccc1Br [Example 410] |  | ≥ 80 |  |  | ≥ 80 | ≥ 80 |  | 

chromatographic logP [4, 7] | chromatographic logP [4, 8] | Compound | pest or weed control at 100 g/ha ([1]; in Zea mays) [%] | pest or weed control at 100 g/ha [2] [%] | pest or weed control at 100 g/ha ([3]; in Brassica rapa) [%] | chromatographic logP ([4]; log P) | pest or weed control at 100 g/ha [1, 5] [%] | pest or weed control at 100 g/ha [3, 6] [%] | chromatographic logP ([4]; by HPLC according to EEC Directive 79/831 Annex V.A8, read-out: log P) | pest or weed control at 20 g/ha ([3]; application rate 20 g/ha, Chinese cabbage leaf discs) [%]
 | 3.12 | CNC(=O)c1cc(Br)cc(C)c1NC(=O)c1cc(Cn2nnc(C(F)(F)F)n2)nn1-c1ncccc1Br [Example 354] |  | ≥ 80 |  |  | ≥ 80 | ≥ 80 |  | 
 |  | CNC(=O)c1cc(C#N)cc(C)c1NC(=O)c1cc(Cn2nnnc2C(F)(F)C(F)(F)F)nn1-c1ncccc1Cl [Example 444] | ≥ 80 | ≥ 80 | ≥ 80 | 2.73 |  |  |  | 
 |  | CSC[C@H](C)NC(=O)c1cc(F)cc(C)c1NC(=O)c1cc(Cn2nnc(C(F)(F)F)n2)nn1-c1ncccc1Cl [Example 43] | ≥ 80 | ≥ 80 | ≥ 80 | 3.31 |  |  |  | 
 |  | Cc1cc(C#N)cc(C(=O)NC(C)C2CC2)c1NC(=O)c1cc(Cn2nnc(C(F)(F)C(F)(F)F)n2)nn1-c1ncccc1Cl (stereo not drawn) [Example 134] | ≥ 80 | ≥ 80 | ≥ 80 | 3.84 |  |  |  | 
 | 3.93 | CNC(=O)c1cc(Cl)cc(C)c1NC(=O)c1cc(Cn2nnc(C(F)(F)F)n2)nn1-c1cc(Cl)ccc1Cl [Example 313] |  | ≥ 80 |  |  | ≥ 80 | ≥ 80 |  | 
 |  | Cc1cc(Br)cc(C(=O)NC(C)(C)C)c1NC(=O)c1cc(Cn2nnc(C(F)(F)F)n2)nn1-c1ncccc1Cl [Example 114] | ≥ 80 | ≥ 80 | ≥ 80 | 4 |  |  |  | 
3.07 |  | Cc1cc(C#N)cc(C(=O)NC(C)(C)C)c1NC(=O)c1cc(Cn2nnnc2C(F)(F)F)nn1-c1ncccc1Br [Example 483] |  | ≥ 80 |  |  | ≥ 80 | ≥ 80 |  | 
 |  | CC(C)(C)NC(=O)c1cc(Cl)cc(Cl)c1NC(=O)c1cc(Cn2nnc(C(F)(F)F)n2)nn1-c1ncccc1Cl [Example 60] | ≥ 80 | ≥ 80 | ≥ 80 | 3.78 |  |  |  | 
 |  | Cc1cc(C#N)cc(C(=O)NC(C)C2CC2)c1NC(=O)c1cc(Cn2nnc(C(F)(F)F)n2)nn1-c1ncccc1Cl (stereo not drawn) [Example 20] | ≥ 80 | ≥ 80 | ≥ 80 | 3.33 |  |  |  | 
 |  | Cc1cc(C#N)cc(C(=O)N[C@@H]2C[C@H]2CO)c1NC(=O)c1cc(Cn2nnc(C(F)(F)F)n2)nn1-c1ncccc1Cl [Example 76] | ≥ 80 | ≥ 80 | ≥ 80 | 2.39 |  |  |  | 
 |  | Cc1cc(C#N)cc(C(=O)NC2CCC2)c1NC(=O)c1cc(Cn2nnnc2C(F)(F)F)nn1-c1ncccc1Cl [Example 186] | ≥ 80 | ≥ 80 | ≥ 80 | 2.83 |  |  |  | 
 |  | CNC(=O)c1cc(Cl)cc(C)c1NC(=O)c1cc(Cn2nnnc2C(F)F)nn1-c1ncccc1Cl [Example 470] | ≥ 80 | ≥ 80 | ≥ 80 | 2.26 |  |  |  | 
 | 3.5 | CNC(=O)c1cc(Cl)cc(C)c1NC(=O)c1cc(Cn2nnc(C(F)(F)F)n2)nn1-c1ccccc1Br [Example 345] |  | ≥ 80 |  |  | ≥ 80 | ≥ 80 |  | 
3.01 |  | CCNC(=O)c1cc(C#N)cc(C)c1NC(=O)c1cc(Cn2nnnc2C(F)(F)F)nn1-c1ccccc1Cl [Example 492] |  | ≥ 80 |  |  | ≥ 80 | ≥ 80 |  | 
3.23 |  | CCNC(=O)c1cc(C#N)cc(C)c1NC(=O)c1cc(Cn2nnc(C(F)(F)C(F)(F)F)n2)nn1-c1ncccc1Br [Example 426] |  | ≥ 80 |  |  | ≥ 80 | ≥ 80 |  | 
2.8 |  | Cc1cc(C#N)cc(C(N)=O)c1NC(=O)c1cc(Cn2nnc(C(F)(F)C(F)(F)F)n2)nn1-c1ncccc1Br [Example 424] |  | ≥ 80 |  |  | ≥ 80 | ≥ 80 |  | 
 |  | CCNC(=O)c1cc(I)cc(C)c1NC(=O)c1cc(Cn2nnc(C(F)(F)F)n2)nn1-c1ncccc1C(F)(F)F [Example 241] |  | ≥ 80 |  |  | ≥ 80 | ≥ 80 |  | 
